Earlier results in US20050209315A1, “Bioavailable nutritional supplement and method of treatment of malabsorption” (priority 2004, published 2005).

Details: relative to alpha tocopherol

alpha-tocotrienol [Alpha tocotrienol]
more antioxidant activity than alpha tocopherol: 40-60%
